# In patent US20240002388A1, “PYRIMIDINONE COMPOUNDS AND USES THEREOF” (HUTCHISON MEDIPHARMA LIMITED, priority 2020, published 2024):
# Tested on: L929 cell line (mouse fibroblastoma cell line)
# Test: L929 cell viability assay (mTNF-α + Z-VAD-FMK induced necroptosis)
# Format: cell-based
# Settings: Mus musculus, L929, 20 h, L929 cells, mTNF-α 0.1 μg/mL + Z-VAD-FMK 5 μM, CellTiter-Glo
# Summary of the method: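 L929 cells (4.9×10^3/well) in 1% FBS MEM got compound (10 to 0.005 μM, 0.3% DMSO), then 5 μM Z-VAD-FMK for 1 h, then 0.1 μg/mL mTNF-α for 20 h at 37 °C. CellTiter-Glo luminescence was normalised between TNF/Z-VAD and unstimulated wells, and IC50 was curve-fitted.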
structure (smiles),measurement,value
CCn1cncc(-c2ccc(C3(NC(=O)c4ncc5cnn(C(C)C)c5n4)CC3)cc2)c1=O [Compound 37],IC50,186 nM
